From patent US6495525B1, “VLA-4 inhibitor: oMePUPA-V” (Biogen, Inc., priority 1998, dated 2002) come the findings set out here.

Usually IC50 stands for the point on the concentration scale where inhibition reaches its midpoint.

The target in data set [1] is T1, VLA-4 (Homo sapiens, UniProt P05556+P13612). Briefly: VLA-4-VCAM-Ig binding (Table 1; VLA-4 binding assays). On the set-up: endogenous in cells; host or cells: Jurkat (human T cell line). The note with it: read-out: IC50 against VLA-4-VCAM-Ig binding. From the text:
(§1) A direct binding assay may also be employed to quantitate the inhibitory activity of the compounds of this invention. In this assay, a VCAM-IgG fusion protein containing the first two immunoglobulin domains of VCAM (D1D2) attached above the hinge region of an IgG1 molecule (“VCAM 2D-IgG”), is conjugated to a marker enzyme, such as alkaline phosphatase (“AP”). The synthesis of this VCAM-IgG fusion is described in PCT publication WO 90/13300, the disclosure of which is herein incorporated by reference. The conjugation of that fusion to a marker enzyme is achieved by cross-linking methods well-known in the art.
The VCAM-IgG enzyme conjugate is then placed in the wells of a multi-well filtration plate, such as that contained in the Millipore Multiscreen Assay System (Millipore Corp., Bedford, Ma.). Varying concentrations of the test inhibitory compound are then added to the wells followed by addition of VLA-4-expressing cells. The cells, compound and VCAM-IgG enzyme conjugate are mixed together and allowed to incubate at room temperature.
Following incubation, the wells are vacuum drained, leaving behind the cells and any bound VCAM. Quantitation of bound VCAM is determined by adding an appropriate colorimetric substrate for the enzyme conjugated to VCAM-IgG and determining the amount of reaction product. Decreased reaction product indicates increased binding inhibitory activity. […]

Data set [2] deals with T1, VLA-4. In words: VCAM-Ig Direct Binding Assay (DBA) on Jurkat cells. Set-up: endogenous in cells; host or cells: Jurkat (human T cell line).
Excerpt: as §1
The VCAM-IgG enzyme conjugate is then placed in the wells of a multi-well filtration plate, such as that contained in the Millipore Multiscreen Assay System (Millipore Corp., Bedford, Ma.). Varying concentrations of the test inhibitory compound are then added to the wells followed by addition of VLA-4-expressing cells. […]
Following incubation, the wells are vacuum drained, leaving behind the cells and any bound VCAM. Quantitation of bound VCAM is determined by adding an appropriate colorimetric substrate for the enzyme conjugated to VCAM-IgG and determining the amount of reaction product. […]
VCAM-Ig was constructed and purified as published (Jakubowski, A. et al. Cell Adhesion and Communication 3:131-142, 1995). […] Binding to VLA-4 was assessed on the human T cell line, Jurkat (α4β1). […]

Data set [3] addresses T1, VLA-4. Briefly: Purified VLA-4 Protein/Protein Assay with VCAM-Ig-AP. Format: binding. Set-up: endogenous in cells; host or cells: Jurkat (human T cell line). How it is done: VLA-4 was purified from a detergent extract of a high expressing subclone of α4-transfected K562 cells by antibody affinity chromatography and immobilized on microtiter wells to establish a protein/protein competitive binding assay. VCAM-Ig-AP was bound to the purified VLA-4-coated plate in the absence or presence of oMePUPA-V (Lot #2) and 1 mM MnCl2. Plates were read at 405 nm and the data were analyzed using SoftMax v. 2.32 software.

Data set [4] addresses T1, VLA-4. In words: Competition / dissociation assay with 3H-known inhibitor on Jurkat cells. Format: binding. Set-up: endogenous in cells; host or cells: Jurkat (human T cell line). Conditions: Mn+2-activated VLA-4. How it is done: Jurkat cells were maintained in RPMI-1640 medium plus 10% fetal bovine serum at 37° C. in a tissue culture incubator. For binding studies, the cells were pelleted by centrifugation, washed two times with TBS (50 mM Tris HCl, 150 mM NaCl, 0.1% bovine serum albumin, 2 mM glucose, 10 mM HEPES pH 7.4), suspended at approximately 2×10^6 cells/ml in TBS, and counted using a Neubauer hemocytometer. The cells were further diluted to 1.5×10^6/ml in the buffers indicated and subjected to the specific treatments defined for each experiment. The cells were then pelleted by centrifugation, resuspended in 100 μl of assay buffer, and transferred to a scintillation vial containing 2.9 ml of ScintiVerse II (Fisher Scientific). Cell-associated radioactivity was quantified by scintillation counting. Counts bound under these conditions measures integrin that is not occupied by the test compound and is therefore free to bind the ^3H-known inhibitor. […] Specific counts bound were calculated by subtracting non-specific counts from total counts bound.
A series of competition studies were performed to verify that oMePUPA-V and the known inhibitor compete for the same site on VLA-4. […] Third, Mn^+2-activated Jurkat cells were treated with saturating amounts of oMePUPA-V, and the rate at which the oMePUPA-V dissociated was measured. […]

T1 sequence (P13612 34-1032): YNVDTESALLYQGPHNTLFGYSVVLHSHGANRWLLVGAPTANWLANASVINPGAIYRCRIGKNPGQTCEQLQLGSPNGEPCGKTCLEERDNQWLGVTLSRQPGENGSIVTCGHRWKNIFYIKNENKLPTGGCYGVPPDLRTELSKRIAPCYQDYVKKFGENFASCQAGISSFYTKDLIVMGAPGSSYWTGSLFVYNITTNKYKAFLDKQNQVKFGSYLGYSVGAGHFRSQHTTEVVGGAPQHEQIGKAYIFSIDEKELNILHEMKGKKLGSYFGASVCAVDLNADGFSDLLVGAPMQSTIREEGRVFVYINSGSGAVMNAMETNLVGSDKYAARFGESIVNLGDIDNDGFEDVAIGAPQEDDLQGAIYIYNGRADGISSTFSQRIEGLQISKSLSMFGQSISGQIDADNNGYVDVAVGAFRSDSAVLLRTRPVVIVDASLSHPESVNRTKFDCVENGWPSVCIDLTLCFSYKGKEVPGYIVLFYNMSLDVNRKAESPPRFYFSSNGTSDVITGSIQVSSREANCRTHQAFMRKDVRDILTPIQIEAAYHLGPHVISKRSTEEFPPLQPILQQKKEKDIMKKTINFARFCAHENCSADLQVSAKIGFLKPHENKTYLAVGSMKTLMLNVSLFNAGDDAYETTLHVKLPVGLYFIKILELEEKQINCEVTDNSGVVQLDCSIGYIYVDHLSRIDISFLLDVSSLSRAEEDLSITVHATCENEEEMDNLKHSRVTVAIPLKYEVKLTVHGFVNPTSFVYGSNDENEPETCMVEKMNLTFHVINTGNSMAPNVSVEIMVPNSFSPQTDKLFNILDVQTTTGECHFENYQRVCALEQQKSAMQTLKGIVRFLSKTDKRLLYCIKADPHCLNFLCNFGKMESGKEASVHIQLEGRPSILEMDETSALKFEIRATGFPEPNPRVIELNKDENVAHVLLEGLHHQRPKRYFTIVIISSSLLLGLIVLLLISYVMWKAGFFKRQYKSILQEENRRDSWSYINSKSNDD
T1 sequence (P05556 21-798): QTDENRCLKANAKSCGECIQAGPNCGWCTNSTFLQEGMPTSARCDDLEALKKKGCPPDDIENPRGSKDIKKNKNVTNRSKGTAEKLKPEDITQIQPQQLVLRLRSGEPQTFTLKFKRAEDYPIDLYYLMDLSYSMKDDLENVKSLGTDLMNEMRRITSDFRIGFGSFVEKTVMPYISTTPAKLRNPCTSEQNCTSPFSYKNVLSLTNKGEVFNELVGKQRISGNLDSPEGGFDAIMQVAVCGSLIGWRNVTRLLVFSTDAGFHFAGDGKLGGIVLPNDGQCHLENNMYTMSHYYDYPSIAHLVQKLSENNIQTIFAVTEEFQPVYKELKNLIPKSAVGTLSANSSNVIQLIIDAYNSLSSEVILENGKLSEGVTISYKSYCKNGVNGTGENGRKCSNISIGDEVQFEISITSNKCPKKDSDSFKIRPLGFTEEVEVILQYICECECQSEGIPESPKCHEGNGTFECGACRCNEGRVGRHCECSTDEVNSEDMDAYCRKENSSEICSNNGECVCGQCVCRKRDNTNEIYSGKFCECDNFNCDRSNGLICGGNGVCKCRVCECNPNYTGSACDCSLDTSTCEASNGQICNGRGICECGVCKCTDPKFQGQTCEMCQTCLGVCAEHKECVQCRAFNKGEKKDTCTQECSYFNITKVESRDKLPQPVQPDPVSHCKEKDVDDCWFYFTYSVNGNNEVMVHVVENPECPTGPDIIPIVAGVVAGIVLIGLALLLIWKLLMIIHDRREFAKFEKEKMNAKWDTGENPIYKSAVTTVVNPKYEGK

For `Cc1ccccc1NC(=O)Nc1ccc(CC(=O)N2CCC[C@H]2C(=O)N[C@H](C)CC(=O)O)cc1` [oMePUPA-V], in the data set “Ames test (mutagenicity)”, the “Ames test (mutagenicity)” value is “clean”. In addition, the concentration for half-maximal inhibition (IC50) at VLA-4 [1] turned out to be 2.7 nM; on VLA-4 [2] (1 mM MnCl2, read-out: IC50 ± SD, Jurkat cell VCAM-Ig Binding), 8 ± 1 nM; on VLA-4 [3] (1 mM MnCl2, read-out: IC50, Purified VLA-4 VCAM-Ig binding) it was 0.1 nM. In addition, the “specificity for VLA-4” value at VLA-4 [2] (versus α4β7, VLA-5 and gpIIbIIIa) was > 10,000 fold. Further, the “potency on isolated VLA-4 relative to Jurkat cells in the binding assay” value at VLA-4 [3] (in the presence of Mn+2) is on record as 80 fold. In addition, the “concentration needed to compete 3H-known inhibitor binding, relative to cold known inhibitor” value at VLA-4 [4] is recorded as 10 fold.
